Patent US6043261A, “Pyrrolodino imidines useful as nitric oxide synthase inhibitors” (G. D. Searle & Co., priority 1998, dated 2000)
Counter-ions that a name gives are not always drawn. Like-named read-outs stand apart in the source and are kept apart here.

Key:
[1] = biological target: T1, human inducible NOS (hiNOS) (Homo sapiens, UniProt P35228); experiment: Citrulline Assay for Nitric Oxide Synthase, hiNOS; assay type: biochemical; conditions: recombinant human inducible NOS, 37° C., 15 minutes
T1 construct: made in house; host or cells: insect cells, baculovirus vector
Method: (§1) Citrulline Assay for Nitric Oxide Synthase
(§2) Nitric oxide synthase activity was measured by monitoring the conversion of L-[2,3-3H]-arginine to L-[2,3-3H]-citrulline (1,2). The cDNA for human inducible NOS (hiNOS) was isolated from a lcDNA library made from RNA extracted from a colon sample from a patient with ulcerative colitis; human endothelial constitutive NOS (hecNOS) was isolated from a lcDNA library made from RNA extracted from human umbilical vein endothelial cells (HUVEC); and human neuronal constitutive NOS (hncNOS) was isolated from a lcDNA library made from RNA extracted from human cerebellum from a cadaver. The recombinant enzymes were expressed in insect cells using a baculovirus vector. Enzyme activity was isolated from cell extracts and partially purified by DEAE-Sepharose chromatography (2). […] For constitutive NOS, calmodulin was included at a final concentration of 40-100 nM. Following incubation at 37° C. for 15 minutes, the reaction was terminated by addition of 300 μL cold buffer containing 10 mM EGTA, 100 mM HEPES (pH5.5) and 1.0 mM L-citrulline. The [3H]-citrulline was separated by chromatography on Dowex 50W X-8 cation exchange resin and radioactivity quantified with a liquid scintillation counter.

[2] = biological target: T2, human endothelial constitutive NOS (hecNOS) (Homo sapiens, UniProt P29474); experiment: Citrulline Assay for Nitric Oxide Synthase, hecNOS; assay type: biochemical; conditions: recombinant human endothelial constitutive NOS, 37° C., 15 minutes, calmodulin 40-100 nM
T2 construct: made in house; host or cells: insect cells, baculovirus vector
Method: as §1, §2

[3] = biological target: T3, human neuronal constitutive NOS (hncNOS) (Homo sapiens, UniProt P29475); experiment: biochemical; conditions: recombinant human neuronal constitutive NOS, 37° C., 15 minutes, calmodulin 40-100 nM
T3 construct: made in house; host or cells: insect cells, baculovirus vector
Method: as §1, §2

RAW cell miNOS = biological target: T4, RAW cell miNOS (Mus musculus, UniProt P29477); experiment: Raw Cell Nitrite Assay; assay type: cell-based; conditions: RAW 264.7 cells, LPS-induced, L-arginine 30 μM, nitrite production 1 h at 37° C.
T4 construct: in the presence of LPS to induce NOS; endogenous in cells; host or cells: RAW 264.7 cells, LPS-induced
Method: RAW 264.7 cells are plated to confluency on a 96-well tissue culture plate grown overnight (17 h) in the presence of LPS to induce NOS. […] The media is removed from each well and the cells are washed twice with Krebs-Ringers-Hepes (25 mM, pH 7.4) with 2 mg/ml glucose. The cells are then placed on ice and incubated with 50 μL of buffer containing L-arginine (30 μM) ± inhibitors for 1 h. The assay is initiated by warming the plate to 37° C. in a water bath for 1 h. […] To terminate the cellular assay, the plate of cells is placed on ice and the nitrite-containing buffer removed and analyzed for nitrite using a previously published fluorescent determination for nitrite. All values are the average of triplicate wells and are compared to a background-subtracted induced set of cells (100% value).

Plasma Nitrites/Nitrates = experiment: In Vivo Assay: plasma nitrites/nitrates, Endotoxin in Rat Model; set-up: species or system Rats; conditions: 10 mg/kg p.o., 1 hour prior to LPS 10 mg/kg i.p., plasma nitrites 5 hours post-treatment
Method: In Vivo Assay Rats were treated with an intraperitoneal injection of 10 mg/kg of endotoxin (LPS) with or without oral administration of the nitric oxide synthase inhibitors administered 1 hour prior to LPS. Plasma nitrites were measured 5 hours post-treatment.

IC50 [1] | IC50 [2] | IC50 ([3]; read-out: IC50 hncNOS) | IC50 (RAW cell miNOS; read-out: IC50 RAW cell miNOS) | SMILES | % Inhibition of Plasma Nitrites/Nitrates (Plasma Nitrites/Nitrates) | IC50 ([3]; IC50 hncNOS) | IC50 (RAW cell miNOS; IC50 RAW cell miNOS)
3 µM | 458 µM | 8.3 µM | 5.4 µM | C[C@@H]1CC(=N)N[C@H]1Cc1ccccc1 (relative stereo) [Example 64, (±) (trans) 4-methyl-5-(phenylmethyl)pyrrolidin-2-imine, Monohydrochloride] | 35% |  | 
62 µM | 651 µM | 30 µM | 170 µM | N=C1CCCCC(Cc2ccccc2)N1 (single isomer, unassigned; (+)) [Example 14, (+)-hexahydro-7-(phenylmethyl)-1H-azepin-2-imine, Monohydrochloride] |  |  | 
3.6 µM | 599 µM | 14 µM | 1.8 µM | N=C1CCCCC(Cc2ccccc2)N1 (single isomer, unassigned; (-)) [Example 16, (-)-hexahydro-7-(phenylmethyl)-1H-azepin-2-imine, Monohydrochloride] |  |  | 
6.2 µM | 792 µM | 15 µM | 66 µM | Cl.N=C1CCCCC(Cc2ccccc2)N1 (stereo not shown) [Example 5, Hexahydro-7-(phenylmethyl)-1H-azepin-2-imine, Monohydrochloride] | 37% |  | 
9.7 µM | 575 µM | 74 µM | > 100 µM | N=C1CCCCC(CC2CCCCC2)N1 (stereo not shown) [Example 9, 7-(cyclohexylmethyl)hexahydro-1H-azepin-2-imine, Monohydrochloride] |  |  | 
 |  | 8.4 µM | 28 µM | N=C1CCCCC(CC2CO2)N1 (stereo not shown) [Example 21, Hexahydro-7-[(oxiran-2-yl)methyl]-1H-azepin-2-imine, Monohydrochloride] |  |  | 
8.1 µM | 183 µM | 24 µM |  | N=C1CCCCC(C/C=C/c2ccccc2)N1 (stereo not shown) [Example 34, Hexahydro-7-(3-phenyl-2-propenyl)-1H-azepin-2-imine, Monohydrochloride] |  |  | 
19 µM | 836 µM | 118 µM | 80 µM | N=C1CCCCC(CCCc2ccccc2)N1 (stereo not shown) [Example 37, Hexahydro-7-(3-phenylpropyl)-1H-azepin-2-imine, Monohydrochloride] |  |  | 
 |  |  |  | NC1=NC(Cc2ccccc2)CCC1 (stereo not shown) [Example 94, 6-(phenylmethyl)piperidin-2-imine, Monohydrochloride] |  | 0.71 µM | 7.9 µM
 |  |  | 45 µM | N=C1CCCCC(CC2CC(c3ccccc3)=NO2)N1 (stereo not shown) [Example 191, 7-[(4,5-dihydro-3-phenylisoxazolyl-5-yl)methyl]hexahydro-1H-azepine-2-imine, Monotrifluoroacetic Acid Salt] |  |  | 

SMILES | IC50 [1] | IC50 [2] | IC50 ([3]; read-out: IC50 hncNOS) | IC50 (RAW cell miNOS; read-out: IC50 RAW cell miNOS) | % Inhibition of Plasma Nitrites/Nitrates (Plasma Nitrites/Nitrates) | IC50 ([3]; IC50 hncNOS) | IC50 (RAW cell miNOS; IC50 RAW cell miNOS)
N=C1CCCC(CC2CCCCC2)N1 (stereo not shown) [Example 95, 6-(cyclohexylmethyl)piperidin-2-imine, Monohydrochloride] | 5.9 µM | 375 µM | 28 µM |  |  |  | 
